Measured values from patent US9963701B2, “Pharmaceutical composition for treatment of radiation- or drug-resistant cancer comprising HRP-3 inhibitor” (KOREA INSTITUTE OF RADIOLOGICAL & MEDICAL SCIENCES, priority 2013, dated 2018).
“Also recorded” adds a separate entry of the source.

Experiments:
Assay type in all cases: cell-based, human
[1] = system: A549 cells; test: Apoptosis by FACS analysis (annexin V / propidium iodide) in A549 cells; conditions: 0.1 μg/ml doxorubicin or 5 ng/ml vinblastine, 48 hours
Experimental: (§1) Human NSCLC cell lines (A549 and H460) were purchased from the ATCC and cultured in RPMI-1640 medium containing 10% FBS, 50 μg/ml streptomycin, and 50 units/ml penicillin. The cultured cells were irradiated using a ^137Cs-ray source (Atomic Energy of Canada, Ltd., Canada) at a dose rate of 3.81 Gy/min and were treated with 0.1 μg/ml doxorubicin or 5 ng/ml vinblastine. The treated cells were treated with trypsin, washed with PBS, stained with annexin V and propidium iodide, and then analyzed by FACS using a flow cytometer to measure apoptosis (FIG. 1A).
In addition, A549 cells were transfected with 100 nM scrambled siRNA or HRP-3 siRNA and cultured for 2 days. Then, changes in the morphology of the cells were observed under an optical microscope, and the death rate of the cells was measured by FACS analysis (FIG. 2D). Also, the levels of two apoptotic markers (cleaved PARP and active caspase-3) were determined by Western blotting (FIG. 2E).
In order to examine this correlation, the effect of HRP-3 in the A549 cells treated with radiation or the drug was analyzed. Specifically, A549 cells were transfected with 100 nM scrambled siRNA or HRP-3 siRNA, and then treated with 10 Gy radiation, 0.1 μg/ml doxorubicin or 5 ng/ml vinblastine and cultured. The death rate of the cultured cells was determined by FACS analysis (FIG. 3B).

[2] = system: H460 cells; test: Apoptosis by FACS analysis in H460 cells; conditions: 0.1 μg/ml doxorubicin or 5 ng/ml vinblastine, 48 hours
Experimental: as §1
(§2) Specifically, while each type of H460 cells and H1299 cells were inoculated into a culture dish at a density of 3.5×10^5 cells/cm^2 and cultured in RPMI-1640 medium, each type of cell was radiated with 0 and 10 Gy of ^137Cs-rays, or the cell culture was treated with 0 and 0.1 μg/ml of doxorubicin or 0 and 5 ng/ml of vinblastine (Sigma, St. Louis, Mo., USA) and cultured. Next, the death rate of the cells was determined by FACS analysis according to a known method (M. J. Kim, et al., Cancer Lett, 339:15-24, 2013) (FIG. 7A).

[3] = system: H1299 cells; test: Apoptosis by FACS analysis in H1299 cells; conditions: 0.1 μg/ml doxorubicin or 5 ng/ml vinblastine, 48 hours
Experimental: as §2
The inhibition of HRP-3 expression in H1299 cells was performed according to the method in Example 6-2, and the H1299 cells, which were inhibited of HRP-3 expression, were subjected to anticancer treatment (radiation, doxorubicin treatment or vinblastine treatment), and their apoptotic rate was measured (FIG. 7D).
The morphological change and apoptotic rate of H1299 cells were measured in the same manner as described in Example 6-4, except that radiation alone was performed as anticancer treatment (FIG. 8A).

[4] = system: HRP-3; test: HRP-3 protein level after radiation or drug treatment in H1299 cells (Western blot); conditions: 0.1 μg/ml doxorubicin or 5 ng/ml vinblastine
Experimental: While H1299 cells were cultured in RPMI-1640 medium, the cells were radiated with 10 Gy of ^137Cs-rays, or the cell culture was treated with 0.1 μg/ml doxorubicin or 5 ng/ml vinblastine, and the change in the expression level of HRP-3 as a function of time for a culture time of 48 hours was analyzed by Western blotting or immunofluorescence staining (FIGS. 6D and 6E).

[5] = system: IκB, c-Myc, Noxa; test: Western blot of IκB, c-Myc, Noxa in H1299 cells; conditions: siHRP-3-treated H1299 cells
Experimental: Specifically, a cell lysate obtained by lysing the scrambled siRNA- or siHRP-3-treated H1299 cells cultured in Example 6-2 was analyzed by Western blot using anti-HRP-3 antibodies, anti-IκB antibodies (Santa Cruz Biotechnology Inc., Santa Cruz, Calif., USA), anti-c-Myc antibodies (Calbiochem, San Diego, Calif., USA) and anti-Noxa antibodies (Calbiochem, San Diego, Calif., USA). Herein, β-actin was used as a loading control (FIG. 9A; left). As control cells, H1299 cells were treated with scrambled siRNA alone.
H1299 cells subjected to the inhibition of HRP-3 expression and radiation were obtained in the same manner as described in Example 6-4, except that radiation alone, was performed as anticancer treatment. The thus obtained H1299 cells were lysed to obtain a cell lysate. The expression levels of IκB, c-Myc and Noxa were measured in the same manner as described in Example 8-1, except that the thus obtained lysate was used, and NF-κB activity was also measured in the same manner as described in Example 8-1 (FIG. 9B). As control cells, H1299 cells treated with scrambled siRNA alone were used.
The thus obtained cells were lysed to obtain a cell lysate. The expression levels of IκB, c-Myc and Noxa were measured by Western blot analysis in the same manner as described in Example 8-1, except that the cell lysate was used. Also, NF-κB activity was measured by a reporter gene assay (FIG. 9C). […]

[6] = system: NF-κB; test: NF-κB reporter gene assay (pNF-κB-luc) in H1299 cells; conditions: siHRP-3-treated H1299 cells, 2 μM BAY 11-7082, 48 hours
Experimental: In addition, the activity of NF-κB in the scrambled siRNA- or siHRP-3-treated H1299 cells was measured by a reporter gene assay using Dual-Reporter™. Specifically, H1299 cells were transfected with 0.5 μg plasmid DNA (pNF-κB-luc; Stratagene, Cambridge, UK) in Dual-Reporter™, and then the luciferase activity in the cells was measured using a luminometer, and the activity of NF-κB was measured at various protein concentrations (FIG. 9A; right).

[7] = system: ROS; test: ROS production by FACS analysis using DCF-DA in A549 cells; conditions: 1 mM NAC, 48 hours
Experimental: Thus, it was predicted that HRP-3 would influence ROS production, and the following experiment was performed in order to confirm this prediction. […] The level of ROS produced in the cells was determined by FACS analysis using 10 nM DCF-DA (FIG. 4C).
Further, A549 cells were transfected with 100 nM scrambled siRNA or HRP-3 siRNA without or with exposure to 10 Gy radiation and cultured, and the level of ROS produced in the cells was assessed by FACS analysis using 10 nM DCF-DA (FIG. 4D).

[8] = system: p53, pp53, PUMA, cleaved PARP; test: Western blot of cleaved PARP, p53, pp53, PUMA in A549 cells; conditions: siHRP-3-transfected A549 cells, 1 mM NAC
From the text: Additionally, the effect of p53 on the induction of apoptosis was examined. […] Next, the levels of HRP-3, cleaved PARP, p53, pp53, and PUMA proteins produced in the cells were detected by Western blot analysis (FIG. 5D).

[9] = system: ROS; test: ROS production by DCF-DA (confocal, FACS) in H1299 cells; conditions: 3 mM NAC
Experimental: According to a known method, the thus obtained H1299 cells were treated with 10 nM DCF-DA (2′,7′-dichlorofluorescein diacetate) for 20 minutes, and the produced ROS was detected (M. J. Kim, et al., Cancer Lett, 339:15-24, 2013) (FIG. 8D). The detection of ROS was performed by observing the DCF-DA-stained cells with a laser scanning confocal microscope and analyzing the DCF-DA-stained cells by FACS analysis to determine the production of ROS.

Row | Compound | resistance of A549 cells compared to H460 cells (apoptosis) [1] | apoptotic rate [2] | apoptotic rate [3] | time after treatment at which level of HRP-3 peaked [4] | other results
1 | COc1cccc2c1C(=O)c1c(O)c3c(c(O)c1C2=O)C[C@@](O)(C(=O)CO)C[C@@H]3O[C@H]1C[C@H](N)[C@H](O)[C@H](C)O1 [doxorubicin] | higher levels of resistance | about 39% | about 23% | 12 h | 
2 | Cc1ccc(S(=O)(=O)/C=C/C#N)cc1 [BAY 11-7082] |  |  |  |  | IκB, c-Myc and Noxa expression changes due to inhibition of HRP-3 expression ([5]; 2 μM BAY 11-7082, 48 hours): levels similar to the control cells; increase in NF-κB activity due to inhibition of HRP-3 expression [6]: levels similar to the control cells
3 | CC(=O)N[C@@H](CS)C(=O)O [NAC, N-acetyl cysteine] |  |  |  |  | effect on ROS generation induced by inhibition of HRP-3 expression [7]: reduced; also recorded: inhibited; induction of cleaved PARP by HRP-3 deletion [8]: significantly decreased; p53 and PUMA levels [8]: dramatically decreased; ROS production after inhibition of HRP-3 expression and radiation [9]: decreased to that of control cells; IκB, c-Myc and Noxa expression changes due to inhibition of HRP-3 expression ([5]; 3 mM NAC, 48 hours): levels similar to the control cells
4 | CC[C@]1(O)C[C@@H]2CN(CCc3c([nH]c4ccccc34)[C@@](C(=O)OC)(c3cc4c(cc3OC)N(C)[C@H]3[C@@](O)(C(=O)OC)[C@H](OC(C)=O)[C@]5(CC)C=CCN6CC[C@]43[C@@H]65)C2)C1 [vinblastine] | higher levels of resistance | about 43% | about 26% | 12 h | 
